Test results: patent publication US9242937B2, “Pharmaceutically active disubstituted pyridine derivatives” (Bayer Intellectual Property GmbH, priority 2011, dated 2016)

How the values were obtained:
CDK9/Cyclin T1 = target: T1, CDK9/Cyclin T1 (Homo sapiens, UniProt P50750); test: LanthaScreen Eu Kinase Binding Assay, CDK9/Cyclin T1; settings: tracer 236, read-out: CDK9/Cyclin T1 (activity range), Kd
T1 construct: purchased Invitrogen
Protocol: (§1) This protocol describes how the LanthaScreen Eu Kinase Binding Assay was performed to determine dissociation constants (Kd) of compounds of general formula (I) and CDK/Cyclin complexes. The principle behind this assay is based upon the binding and displacement of an Alexa Fluor 647-labeled tracer, which binds to the active site of kinases. Binding of the tracer to the kinase is detected using a Eu-labeled antibody. Simultaneous binding of both the tracer and antibody to the kinase gives rise to a FRET-signal. Binding of an inhibitor to the kinase competes for binding with the tracer, resulting in a loss of FRET.
(§2) The compounds of general formula (I) summarized in Table 1 were diluted from a 10 mM DMSO stock solution 1:10 in a total volume of 15 μL DMSO. This compound predilution was then serial diluted 1:3 over 8 steps in DMSO and briefly spun down. Each compound solution was now diluted 1:33.33 in kinase buffer (HEPES: 20 mM, pH: 8.0; MgCl2: 10 mM; DTT: 1 mM; Brij-35: 0.01%), mixed thoroughly and spun down. For every sample, 5 μL of the diluted compound were mixed with 5 μL tracer working solution (e.g. 60 nM tracer 236 in kinase buffer for CDK2/Cyclin A) and 5 μL CDK/Cyclin/Anti-GST-AB-working solution (e.g. 15 nM CDK2/Cyclin A, 1:250 dilution of Anti-GST-AB in kinase buffer) in a well of a small volume 384 well plate (Corning Incorporated, Corning, N.Y., USA; order no. 3673). The tracer concentration was adjusted to its dissociation constant (Kd) for the CDK/Cyclin, which was 30 nM for CDK2/Cyclin A, CDK7/Cyclin H and CDK9/Cyclin T1, 20 nM for CDK8/Cyclin C, and 35 nM for CDK9/Cyclin K. For negative controls, in each well 5 μL of DMSO working solution (3% DMSO diluted in kinase buffer) was mixed with 5 μL Anti-GST-AB working solution (e.g. 1:250 dilution of Anti-GST-AB in kinase buffer for CDK2/Cyclin A) and 5 μL Tracer working solution (e.g. 60 nM Tracer 236 in kinase buffer for CDK2/Cyclin A). For positive controls, in each well 5 μL of DMSO working solution (3% DMSO diluted in kinase buffer) was mixed with 5 μL CDK/Cyclin/Anti-GST-AB-working solution: (e.g. 15 nM CDK2/Cyclin A, 1:250 dilution of Anti-GST-AB in kinase buffer) and 5 μL Tracer working solution (e.g. 60 nM Tracer 236 in kinase buffer for CDK2/Cyclin A). Positive and negative controls were calculated from at least 8 different sample wells. The 384 well plates were mixed in a Teleshaker plate mixer (Beckman Coulter, Brea, Calif., USA) at 2000 rpm for 40 sec, and incubated for 1 h at room temperature before reading. The FRET signal was measured at 340 nm excitation, 665 nm and 615 nm emission (for the kinase tracer and LanthaScreen Eu-AB, respectively) with an Envision spectrophotometer (Perkin Elmer, Waltham, Mass., USA) with 50 μs delay and 300 μs integration time. Kd values were determined from the sigmoidal dose response curves with the software Quattro Workflow (Quattro GmbH, Munich, Germany).

CDK7/CyclinH/MAT1 [1] = target: T2, CDK7/CyclinH/MAT1 (Homo sapiens, UniProt P50613); test: LanthaScreen Eu Kinase Binding Assay, CDK7; settings: tracer 236, read-out: CDK7 (activity range), Kd
T2 construct: purchased Carna Biosciences
T2 sequence (P50613 whole entry): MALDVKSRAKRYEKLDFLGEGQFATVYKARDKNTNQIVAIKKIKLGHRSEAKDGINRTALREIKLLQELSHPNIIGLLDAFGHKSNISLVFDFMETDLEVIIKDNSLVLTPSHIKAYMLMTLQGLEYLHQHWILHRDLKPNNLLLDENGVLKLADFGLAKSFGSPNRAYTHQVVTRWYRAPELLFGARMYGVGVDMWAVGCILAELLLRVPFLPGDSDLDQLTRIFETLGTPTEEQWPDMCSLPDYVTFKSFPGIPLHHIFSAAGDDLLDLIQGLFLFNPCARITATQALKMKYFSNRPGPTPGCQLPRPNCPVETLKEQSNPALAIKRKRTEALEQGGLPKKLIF
T2 sequence (P51946 whole entry partner): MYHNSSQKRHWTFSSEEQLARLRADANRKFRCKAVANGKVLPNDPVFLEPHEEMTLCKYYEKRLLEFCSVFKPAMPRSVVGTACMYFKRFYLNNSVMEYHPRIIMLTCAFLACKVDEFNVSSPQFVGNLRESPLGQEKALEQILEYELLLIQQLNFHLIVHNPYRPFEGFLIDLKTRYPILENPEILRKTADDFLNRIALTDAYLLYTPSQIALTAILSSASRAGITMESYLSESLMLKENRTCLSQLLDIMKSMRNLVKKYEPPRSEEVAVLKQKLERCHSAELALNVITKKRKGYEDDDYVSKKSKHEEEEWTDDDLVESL
T2 sequence (P51948 whole entry partner): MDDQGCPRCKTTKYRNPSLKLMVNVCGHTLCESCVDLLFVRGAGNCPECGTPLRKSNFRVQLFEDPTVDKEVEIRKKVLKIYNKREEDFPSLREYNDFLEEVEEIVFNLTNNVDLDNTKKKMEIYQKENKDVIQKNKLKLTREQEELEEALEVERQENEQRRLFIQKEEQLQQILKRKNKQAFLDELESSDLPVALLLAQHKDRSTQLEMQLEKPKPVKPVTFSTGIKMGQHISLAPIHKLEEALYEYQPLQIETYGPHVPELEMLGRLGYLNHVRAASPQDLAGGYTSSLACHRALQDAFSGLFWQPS
Protocol: as §1, §2

CDK7/CyclinH/MAT1 [2] = target: T2, CDK7/CyclinH/MAT1; test: Lance Ultra KinaSelect Assay, CDK7; assay type: biochemical; settings: ULight MBP substrate, ATP 25 μM; read-out: CDK7 LANCE assay (activity range), IC50
Protocol: This protocol describes how the Lance Ultra KinaSelect Assay was performed to determine half maximal inhibitory concentration (IC50) of compounds of general formula (I) and CDK/Cyclin complexes. The principle behind this enzymatic assay is based upon the phosphorylation of the ULight-Peptide Substrat. It is detected by using a specific EU-labeled anti-phospho peptide antibody. The binding of the Eu-labeled anti-phospho peptide antibody to the phosphorylated ULight labeled peptide gives rise to a FRET-signal. Binding of an inhibitor to the kinase prevents phosphorylation of the ULight-MBP Substrat, resulting in a loss of FRET.
The compounds of general formula (I) summarized in Table 5 were diluted from a 10 mM DMSO stock solution 1:10 in a total volume of 15 μL DMSO. This compound predilution was then serial diluted 1:3 over 8 steps in DMSO and briefly spun down. Each compound solution was now diluted 1:20 in Enzymatic Buffer (HEPES: 50 mM, pH: 7.5; MgCl2: 10 mM; EGTA: 1 mM; DTT: 2 mM; Tween-20: 0.01%), mixed thoroughly and spun down. For every sample, 2 μL of the diluted compound were mixed with 6 μL CDK/Cyclin/Substrat solution and 2 μL ATP solution in a well of a small volume 384 well plate (Corning Incorporated, Corning, N.Y., USA; order no. 3673). The CDK/Cyclin was diluted to the appropriate concentration (see Table 3) and the ATP concentration was adjusted to its […] for the CDK/Cyclin, which was 3 μM for CDK2/Cyclin A, 20 μM for CDK1/Cyclin B1, 25 μM for CDK7/Cyclin H and CDK9/Cyclin T1, 55 μM for CDK6/Cyclin D3, 90 μM for CDK4/Cyclin D1 and 125 μM for CDK9/Cyclin K. For negative controls, in each well 2 μL of DMSO solution (1% final DMSO assay concentration) was mixed with 6 μL substrate solution (50 nM ULight MBP final assay concentration) and 2 μL ATP solution (appropriate final concentration see Table 3). For positive controls, in each well 2 μL of DMSO solution (1% final DMSO assay concentration) was mixed with 6 μL CDK/Cyclin/Substrat (appropriate final concentration see Table 3) and 2 μL Tracer ATP solution (appropriate final concentration see Table 3). Positive and negative controls were calculated from at least 8 different sample wells. The 384 well plates were mixed in a Teleshaker plate mixer (Beckman Coulter, Brea, Calif., USA) at 2000 rpm for 40 sec, and incubated for 1 h at room temperature. Before reading, 10 μL the detection buffer (Lance Detection Buffer 1×; EDTA: […]; Eu-Anti-P-MBP: see Table 3) was added. The FRET signal was measured at 340 nm excitation, 665 nm and 615 nm emission (for the kinase tracer and LanthaScreen Eu-AB, respectively) with an Envision spectrophotometer (Perkin Elmer, Waltham, Mass., USA) with 50 μs delay and 300 μs integration time. IC50 values were determined from the sigmoidal dose response curves with the software Quattro Workflow (Quattro GmbH, Munich, Germany).

T1 sequence (P50750 whole entry): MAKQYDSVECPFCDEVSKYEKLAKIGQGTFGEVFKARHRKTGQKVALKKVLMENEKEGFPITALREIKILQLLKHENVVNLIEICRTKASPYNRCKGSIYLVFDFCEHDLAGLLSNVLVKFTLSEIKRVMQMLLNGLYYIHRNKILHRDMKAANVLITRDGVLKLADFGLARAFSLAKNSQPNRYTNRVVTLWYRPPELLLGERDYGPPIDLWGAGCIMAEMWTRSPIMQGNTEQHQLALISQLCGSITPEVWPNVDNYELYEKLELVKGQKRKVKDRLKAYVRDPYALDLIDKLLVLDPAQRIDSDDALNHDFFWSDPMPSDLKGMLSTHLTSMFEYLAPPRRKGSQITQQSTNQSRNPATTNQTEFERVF
T1 sequence (O60563 whole entry partner): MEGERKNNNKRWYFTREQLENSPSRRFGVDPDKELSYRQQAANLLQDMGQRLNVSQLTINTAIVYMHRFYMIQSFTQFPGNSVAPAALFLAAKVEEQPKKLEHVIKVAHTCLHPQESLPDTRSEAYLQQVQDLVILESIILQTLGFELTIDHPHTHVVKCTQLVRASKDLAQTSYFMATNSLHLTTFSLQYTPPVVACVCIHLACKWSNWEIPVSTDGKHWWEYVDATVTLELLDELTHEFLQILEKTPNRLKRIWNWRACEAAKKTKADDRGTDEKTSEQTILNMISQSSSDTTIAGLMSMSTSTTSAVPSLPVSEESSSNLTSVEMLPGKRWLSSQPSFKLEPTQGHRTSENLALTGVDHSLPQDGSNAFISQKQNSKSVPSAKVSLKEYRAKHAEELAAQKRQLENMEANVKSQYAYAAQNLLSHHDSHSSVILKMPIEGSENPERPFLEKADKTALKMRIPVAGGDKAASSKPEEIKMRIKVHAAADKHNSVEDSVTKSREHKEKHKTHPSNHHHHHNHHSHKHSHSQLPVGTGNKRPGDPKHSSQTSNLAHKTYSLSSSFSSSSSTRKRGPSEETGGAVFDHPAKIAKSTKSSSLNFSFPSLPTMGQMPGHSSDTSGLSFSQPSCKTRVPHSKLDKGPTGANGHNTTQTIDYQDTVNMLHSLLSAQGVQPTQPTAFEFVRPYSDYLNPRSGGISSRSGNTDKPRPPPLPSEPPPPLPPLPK

| Kd (CDK9/Cyclin T1) | Kd (CDK7/CyclinH/MAT1 [1]) | IC50 (CDK7/CyclinH/MAT1 [2]) | SMILES |
| --- | --- | --- | --- |
| 0.1 to 1 µM | > 10 µM | > 10 µM | COc1ccccc1-c1ccnc(Nc2ccc(S(N)(=O)=O)cc2)c1 [Compound E1, 4-[(4-(2-Methoxyphenyl)pyridin-2-yl)amino]benzenesulfonamide] |
| < 0.1 µM |  |  | COc1ccccc1-c1ccnc(Nc2cccc(S(C)(=O)=O)c2)c1 [Compound F1, 4-(2-Methoxyphenyl)-N-(3-(methylsulfonyl)phenyl)pyridin-2-amine] |
| < 0.1 µM | > 10 µM | > 10 µM | COc1ccccc1-c1ccnc(Nc2cccc(S(N)(=O)=O)c2)c1 [Compound D1, 3-[(4-(2-Methoxyphenyl)pyridin-2-yl)amino]benzenesulfonamide] |

The remaining lines, values behind:

| SMILES | Kd (CDK9/Cyclin T1) | Kd (CDK7/CyclinH/MAT1 [1]) | IC50 (CDK7/CyclinH/MAT1 [2]) |
| --- | --- | --- | --- |
| COc1cc(F)ccc1-c1ccnc(Nc2cccc(CS(=O)(=O)N(C)C)c2)c1 [Compound G3, 1-[3-((4-(4-Fluoro-2-methoxyphenyl)pyridin-2-yl)amino)phenyl]-N,N-dimethylmethanesulfonamide] | < 0.1 µM | > 10 µM | > 10 µM |
| COc1cc(F)ccc1-c1ccnc(Nc2cccc(NS(C)(=O)=O)c2)c1 [Compound J1, N-[3-((4-(4-Fluoro-2-methoxyphenyl)pyridin-2-yl)amino)phenyl]-methanesulfonamide] | < 0.1 µM | 1 to 10 µM | > 10 µM |
| COc1cc(F)ccc1-c1ccnc(Nc2cccc(NC(C)=O)c2)c1 [Compound J2, N-[3-((4-(4-Fluoro-2-methoxyphenyl)pyridin-2-yl)amino)phenyl]-acetamide] | < 0.1 µM | > 10 µM | > 10 µM |
| CCCNS(=O)(=O)Cc1cccc(Nc2cc(-c3ccc(F)cc3OC)ccn2)c1 [Compound K1, 1-[3-((4-(4-Fluoro-2-methoxyphenyl)pyridin-2-yl)amino)phenyl]-N-propylmethanesulfonamide] | < 0.1 µM | > 10 µM | > 10 µM |
| COc1ccccc1-c1ccnc(Nc2cccc([N+](=O)[O-])c2)c1 [Compound C1, 4-(2-Methoxyphenyl)-N-(3-nitrophenyl)pyridin-2-amine] | 0.1 to 1 µM |  |  |
| COc1ccccc1-c1ccnc(Nc2ccccc2)c1 [Compound B1, 4-(2-Methoxyphenyl)-N-phenylpyridin-2-amine] | 1 to 10 µM |  |  |
| COc1cc(F)ccc1-c1ccnc(Nc2cccc(CS(N)(=O)=O)c2)c1 [Compound G1, [3-((4-(4-Fluoro-2-methoxyphenyl)pyridin-2-yl)amino)phenyl]-methanesulfonamide] | < 0.1 µM | > 10 µM | > 10 µM |
